Test results as given in patent publication US9273038B2, “Solid forms of an ion channel modulator” (Gilead Sciences, Inc., priority 2014, dated 2016).
Like-named read-outs stand apart in the source and are kept apart here.

Legend:
Format in all cases: physicochemical
[1] = Dynamic vapor sorption (DVS) analysis
Method: The solids with unique XRPD patterns were characterized by DSC, TGA, ^1H NMR, KF and DVS. All XRPD patterns were obtained in the experimental setting as follows: 45 kV, 40 mA, Kα1=1.5406 Å, scan range 2 to 40°, step size 0.0167°, counting time: 15.24 s. DSC and TGA analyses were performed using 10° C./min heating rate over the 20 to 350° C. temperature range.

[2] = Hydrate screen in ethanol/water and isopropanol/water: solubility and relative form stability; settings: for Form III Solubility mg/g (1 day): from 50:50 w/w mixture of Form I & III
Method: A hydrate screen starting from Form I was also conducted to evaluate whether hydrates of Compound I exist. The hydrate screen was conducted in ethanol/water (Table 6) and isopropanol/water (Table 7) mixtures, and in both cases, a new polymorph of Compound I was discovered (denoted as Form III).
From the initial hydrate screens presented in Table 6 and Table 7 no apparent trends were observed. In this case, all slurries of Form I in EtOH/water or IPA/water mixtures remained unchanged after 2 weeks (Table 8 and Table 9). Since Form III has been observed previously under the same conditions, it was suspected that the lack of form conversion is mainly due to slow kinetics. […] Attempts to determine the relative stability between Forms I and III at lower water activities were unsuccessful since Form I either was too soluble or oiled out at water activities of 0.8 or below.

[3] = Thermal stability of Compound I Form IV under vacuum at 45° C. (XRPD, HPLC); settings: for HPLC (% AN) / XRPD / HPLC (% ES): drying under vacuum at 45° C.
Method: Drying study was also performed of Compound I Form IV under vacuum at 45° C. in an attempt to determine the chemical stability of this material by HPLC as well as form stability by XRPD.

[4] = Stable form screen of Compound I Form IV (slurry at room temperature); settings: for solubility at 24 h: slurry of the solid in solvent, thermodynamic from solid, read-out: Solubility after 24 h
Method: Compound I Form IV (about 50 mg) was slurried in 0.5-1 mL of solvent and allowed to stir at room temperature for 2 weeks. […] Similar results were observed after 2 weeks of equilibration (Table 15).

[5] = Abbreviated stable form screen of Compound I Form V (slurry at room temperature); settings: for solubility at 3 days: slurry of the solid in solvent, organic solvent or mixture, thermodynamic from solid, solid converted to Form VI
Method: Abbreviated stable form screen of Compound I Four V was performed by slurrying […] (about 100 mg) in IPA, IPAc and MTBE (1-2 mL) in an attempt to obtain anhydrous form as summarized in Table 16. The first aliquot (about 0.5 mL) was taken for XRPD analysis and solubility assessment after 3 days of equilibration at room temperature. Solids were analyzed before and after overnight drying at 45° C. […] After two weeks equilibration at room temperature no form change was observed. XRPD patterns of all samples were consistent with Compound I Form VI.

[6] = under vacuum at 45° C., 2 and 7 days

Question: With “4-(pyrimidin-2-ylmethyl)-7-(4-(trifluoromethoxy)phenyl)-3,4-dihydrobenzo[f][1,4]oxazepin-5(2H)-one edisylate [Compound I Form XVII]” as the molecule, how does the “Hygroscopicity by DVS (in words)” value [1] read?
Answer: slightly hygroscopic

Question: What about the “Moisture uptake at 90% RH (DVS)” value [1] of the same molecule?
Answer: about 1%

Question: For O=C1c2cc(-c3ccc(OC(F)(F)F)cc3)ccc2OCCN1Cc1ncccn1 [Compound I Form III, 4-(pyrimidin-2-ylmethyl)-7-(4-(trifluoromethoxy)phenyl)-3,4-dihydrobenzo[f][1,4]oxazepin-5(2H)-one], which “Form III Solubility mg/g (1 day)” value ([2]; 10% EtOH/water, water activity >0.9) is on record?
Answer: 0.06 mg/g

Question: What about the “Form III Solubility mg/g (1 day)” value ([2]; 10% IPA/water, water activity >0.9) of the same molecule?
Answer: 0.06 mg/g

Question: What about the “Form III Solubility mg/g (1 day)” value ([2]; 20% EtOH/water, water activity 0.8-0.9) of the same molecule?
Answer: 0.10 mg/g

Question: And the “Form III Solubility mg/g (1 day)” value ([2]; 20% IPA/water, water activity >0.9)?
Answer: 0.19 mg/g

Question: What about the “Form III Solubility mg/g (1 day)” value ([2]; 25% IPA/water, water activity >0.9) of the same molecule?
Answer: 0.78 mg/g

Question: And the “Form III Solubility mg/g (1 day)” value ([2]; 30% EtOH/water, water activity 0.8-0.9)?
Answer: 0.49 mg/g

Question: What about the “Form III Solubility mg/g (1 day)” value ([2]; 30% IPA/water, water activity >0.9) of the same molecule?
Answer: 3.2 mg/g

Question: What about the “Form III Solubility mg/g (1 day)” value ([2]; 35% EtOH/water, water activity 0.8-0.9) of the same molecule?
Answer: 1.8 mg/g

Question: And the “Relative polymorph stability (competition slurry Form I/Form III)” value ([2]; water activities above 0.8, EtOH/water or IPA/water)?
Answer: the most stable polymorph of Compound I

Question: With CS(=O)(=O)O.O=C1c2cc(-c3ccc(OC(F)(F)F)cc3)ccc2OCCN1Cc1ncccn1 [Compound I Form IV, 4-(pyrimidin-2-ylmethyl)-7-(4-(trifluoromethoxy)phenyl)-3,4-dihydrobenzo[f][1,4]oxazepin-5(2H)-one methanesulfonic acid] as the molecule, how does the “HPLC (% AN)” value ([3]; 0 days) read?
Answer: 100 % AN

Question: What about the XRPD ([3]; 0 days) of the same molecule?
Answer: Form IV

Question: And the “HPLC (% ES)” value ([3]; 0 days, theoretical strength 81.21%)?
Answer: 80.2 % ES

Question: And the “HPLC (% AN)” value ([3]; 2 days)?
Answer: 100 % AN

Question: And the XRPD ([3]; 2 days)?
Answer: Form IV

Question: What about the “HPLC (% ES)” value ([3]; 2 days, theoretical strength 81.21%) of the same molecule?
Answer: 85.4 % ES

Question: And the “HPLC (% AN)” value ([3]; 7 days)?
Answer: 100 % AN

Question: What about the XRPD ([3]; 7 days) of the same molecule?
Answer: Form IV

Question: What about the “HPLC (% ES)” value ([3]; 7 days, theoretical strength 81.21%) of the same molecule?
Answer: 82.1 % ES

Question: And the “Form stability by XRPD during drying (in words)” value [3, 6]?
Answer: did not show any form change

Question: And the “HPLC purity during drying” value [3, 6]?
Answer: 100 % (AUC)

Question: And the “HPLC strength during drying” value ([3]; under vacuum at 45° C., 2 and 7 days, theoretical strength 81.21%)?
Answer: 80 to 85%

Question: What about the “Form stability in slurry by XRPD (in words)” value ([4]; 17 solvents, 24 h, similar after 2 weeks, water afforded Form III (wet), Form III + Form II after air drying) of the same molecule?
Answer: no form change in all solvents except water

Question: And the solubility at 24 h ([4]; aqueous with cosolvent or surfactant or cyclodextrin, EtOH/water 0.8 water activity (480 μL H2O and 520 μL EtOH), all solids dissolved)?
Answer: > 150000 µg/mL

Question: And the solubility at 24 h ([4]; organic solvent or mixture, 2-Me-THF)?
Answer: 2300 µg/mL

Question: What about the solubility at 24 h ([4]; organic solvent or mixture, Acetone) of the same molecule?
Answer: 4160 µg/mL

Question: And the solubility at 24 h ([4]; organic solvent or mixture, DCM)?
Answer: 5480 µg/mL

Question: And the solubility at 24 h ([4]; organic solvent or mixture, EtOAc)?
Answer: 1260 µg/mL

Question: What about the solubility at 24 h ([4]; organic solvent or mixture, EtOH) of the same molecule?
Answer: 12200 µg/mL

Question: What about the solubility at 24 h ([4]; organic solvent or mixture, Heptane) of the same molecule?
Answer: 100 µg/mL

Question: And the solubility at 24 h ([4]; organic solvent or mixture, IPA)?
Answer: 5420 µg/mL

Question: And the solubility at 24 h ([4]; organic solvent or mixture, IPAc)?
Answer: 780 µg/mL

Question: And the solubility at 24 h ([4]; organic solvent or mixture, MEK)?
Answer: 3140 µg/mL

Question: And the solubility at 24 h ([4]; organic solvent or mixture, MIBK)?
Answer: 1420 µg/mL

Question: What about the solubility at 24 h ([4]; organic solvent or mixture, MTBE) of the same molecule?
Answer: 340 µg/mL

Question: What about the solubility at 24 h ([4]; organic solvent or mixture, MeCN) of the same molecule?
Answer: 4820 µg/mL

Question: And the solubility at 24 h ([4]; organic solvent or mixture, MeOH)?
Answer: 40400 µg/mL

Question: And the solubility at 24 h ([4]; organic solvent or mixture, THF)?
Answer: 7940 µg/mL

Question: And the solubility at 24 h ([4]; organic solvent or mixture, Toluene)?
Answer: 360 µg/mL

Question: What about the solubility at 24 h ([4]; water, Water, solid converted to Form III (wet)) of the same molecule?
Answer: 4340 µg/mL

Question: What about the “Hygroscopicity by DVS (in words)” value [1] of the same molecule?
Answer: slightly hygroscopic

Question: What about the “Moisture uptake at 90% RH (DVS)” value [1] of the same molecule?
Answer: 1.0 wt %

Question: What about the “Moisture uptake at 90% RH (DVS)” value ([1]; listed as Form IV) of the same molecule?
Answer: 1.01 wt % at

Question: What about the “Hygroscopicity by DVS (in words)” value ([1]; listed as Form IV) of the same molecule?
Answer: Slightly

Question: Which results are given for O=C1c2cc(-c3ccc(OC(F)(F)F)cc3)ccc2OCCN1Cc1ncccn1.O=S(=O)(O)c1ccccc1 [Compound I Form V, 4-(pyrimidin-2-ylmethyl)-7-(4-(trifluoromethoxy)phenyl)-3,4-dihydrobenzo[f][1,4]oxazepin-5(2H)-one benzene sulfonic acid]?
Answer: Form stability in slurry by XRPD (in words) ([5]; IPA, IPAc and MTBE, 3 days, no further change after two weeks): all solids converted to anhydrous Compound I Form VI; solubility at 3 days ([5]; IPA): 16100 µg/mL; solubility at 3 days ([5]; IPAc): 2200 µg/mL; solubility at 3 days ([5]; MTBE): 460 µg/mL

Question: Which results are given for O=C1c2cc(-c3ccc(OC(F)(F)F)cc3)ccc2OCCN1Cc1ncccn1.O=S(=O)(O)c1ccccc1 [Compound I Form VI, 4-(pyrimidin-2-ylmethyl)-7-(4-(trifluoromethoxy)phenyl)-3,4-dihydrobenzo[f][1,4]oxazepin-5(2H)-one benzene sulfonic acid]?
Answer: Hygroscopicity by DVS (in words) [1]: non-hygroscopic; Moisture uptake at 90% RH (DVS) [1]: about 0.1%; Moisture uptake at 90% RH (DVS) ([1]; listed as Form VI): 0.11 wt % at; Hygroscopicity by DVS (in words) ([1]; listed as Form VI): Non-

Question: With CCS(=O)(=O)O.O=C1c2cc(-c3ccc(OC(F)(F)F)cc3)ccc2OCCN1Cc1ncccn1 [Compound I Form XVI, 4-(pyrimidin-2-ylmethyl)-7-(4-(trifluoromethoxy)phenyl)-3,4-dihydrobenzo[f][1,4]oxazepin-5(2H)-one esylate] as the molecule, how does the “Relative humidity of deliquescence (DVS)” value [1] read?
Answer: around 90 % RH

Question: With O=C(O)C(=O)O.O=C1c2cc(-c3ccc(OC(F)(F)F)cc3)ccc2OCCN1Cc1ncccn1 [Compound I Form XVIII, 4-(pyrimidin-2-ylmethyl)-7-(4-(trifluoromethoxy)phenyl)-3,4-dihydrobenzo[f][1,4]oxazepin-5(2H)-one oxalate] as the molecule, how does the “Hygroscopicity by DVS (in words)” value [1] read?
Answer: non-hygroscopic

Question: What about the “Moisture uptake at 90% RH (DVS)” value [1] of the same molecule?
Answer: about 0.075%
